# In ChEMBL document CHEMBL3885881, “DrugMatrix”:
# Species: Rattus norvegicus
# Assay: DrugMatrix - Regimen: Daily Repeat
# Format: toxicity, organism-based, Sprague-Dawley
# Parameters: regimen Daily Repeat, gender Male, age 6-8 weeks
# Conditions: in vivo, po, route oral GAVAGE, vehicle 100 % WATER; for ABSOLUTE BASOPHIL / ABSOLUTE EOSINOPHIL / ABSOLUTE LYMPHOCYTE / ABSOLUTE MONOCYTE / ABSOLUTE SEGMENTED NEUTROPHIL / BASOPHIL / EOSINOPHIL / ERYTHROCYTE COUNT / HEMATOCRIT / HEMOGLOBIN / LEUKOCYTE COUNT / LYMPHOCYTE / MEAN CORPUSCULAR HEMOGLOBIN / MEAN CORPUSCULAR HEMOGLOBIN CONCENTRATION / MEAN CORPUSCULAR VOLUME / MONOCYTE / NEUTROPHIL / NUCLEATED RED BLOOD CELLS / PLATELET COUNT: tissue Blood; for ALANINE AMINOTRANSFERASE / ALKALINE PHOSPHATASE / ASPARTATE AMINOTRANSFERASE / BLOOD UREA NITROGEN / CARBON DIOXIDE / CHLORIDE / CHOLESTEROL / CREATINE PHOSPHOKINASE / CREATININE / GLUCOSE / LACTATE DEHYDROGENASE / LIPASE / PHOSPHORUS / POTASSIUM / SODIUM / TOTAL BILIRUBIN / TOTAL PROTEIN / URIC ACID: tissue Plasma
# [1] = 0 mg/kg, 72 h, dose level Control, time 3 day
# [2] = 0 mg/kg, 120 h, dose level Control, time 5 day
# [3] = […], 72 h, dose 7.5 mg/Kg, dose level Low, time 3 day
# [4] = […], 120 h, dose 7.5 mg/Kg, dose level Low, time 5 day
smiles,measurement,setting,value
CNC1=Nc2ccc(Cl)cc2C(c2ccccc2)=[N+]([O-])C1 [CHLORDIAZEPOXIDE],ABSOLUTE BASOPHIL,[1],0 CELLS/uL
same,ABSOLUTE EOSINOPHIL,[1],40 CELLS/uL
same,ABSOLUTE LYMPHOCYTE,[1],13599.5 CELLS/uL
same,ABSOLUTE MONOCYTE,[1],239.33 CELLS/uL
same,ABSOLUTE SEGMENTED NEUTROPHIL,[1],1021.17 CELLS/uL
same,BASOPHIL,[1],0%
same,EOSINOPHIL,[1],0.33%
same,ERYTHROCYTE COUNT,[1],5.71 x10E6/uL
same,HEMATOCRIT,[1],36.35%
same,HEMOGLOBIN,[1],14.05 G/DL
same,LEUKOCYTE COUNT,[1],14.9 x10E3/uL
same,LYMPHOCYTE,[1],91%
same,MEAN CORPUSCULAR HEMOGLOBIN,[1],24.62 pg
same,MEAN CORPUSCULAR HEMOGLOBIN CONCENTRATION,[1],38.65 G/DL
same,MEAN CORPUSCULAR VOLUME,[1],63.7 fL
same,MONOCYTE,[1],1.5%
same,NEUTROPHIL,[1],7.17%
same,NUCLEATED RED BLOOD CELLS,[1],0.33 /100WBC
same,PLATELET COUNT,[1],1225.5 x10E3/uL
same,ALANINE AMINOTRANSFERASE,[1],48.5 u/L
same,ALKALINE PHOSPHATASE,[1],390.83 u/L
same,ASPARTATE AMINOTRANSFERASE,[1],89 u/L
same,BLOOD UREA NITROGEN,[1],14.83 mg/dL
same,CARBON DIOXIDE,[1],24.83 mmol/L
same,CHLORIDE,[1],100.83 MEQ/L
same,CHOLESTEROL,[1],72.5 mg/dL
same,CREATINE PHOSPHOKINASE,[1],503 u/L
same,CREATININE,[1],0.2 mg/dL
same,GLUCOSE,[1],163 mg/dL
same,LACTATE DEHYDROGENASE,[1],316.83 u/L
same,LIPASE,[1],9.83 u/L
same,PHOSPHORUS,[1],11.57 mg/dL
same,POTASSIUM,[1],6.16 MEQ/L
same,SODIUM,[1],142.62 MEQ/L
same,TOTAL BILIRUBIN,[1],0.2 mg/dL
same,TOTAL PROTEIN,[1],5.8 G/DL
same,URIC ACID,[1],1.65 mg/dL
same,ABSOLUTE BASOPHIL,[2],0 CELLS/uL
same,ABSOLUTE EOSINOPHIL,[2],21 CELLS/uL
same,ABSOLUTE LYMPHOCYTE,[2],14288.5 CELLS/uL
same,ABSOLUTE MONOCYTE,[2],205.33 CELLS/uL
same,ABSOLUTE SEGMENTED NEUTROPHIL,[2],968.5 CELLS/uL
same,BASOPHIL,[2],0%
same,EOSINOPHIL,[2],0.17%
same,ERYTHROCYTE COUNT,[2],5.83 x10E6/uL
same,HEMATOCRIT,[2],36.53%
same,HEMOGLOBIN,[2],14.4 G/DL
same,LEUKOCYTE COUNT,[2],15.48 x10E3/uL
same,LYMPHOCYTE,[2],92%
same,MEAN CORPUSCULAR HEMOGLOBIN,[2],24.72 pg
same,MEAN CORPUSCULAR HEMOGLOBIN CONCENTRATION,[2],39.43 G/DL
same,MEAN CORPUSCULAR VOLUME,[2],62.68 fL
same,MONOCYTE,[2],1.33%
same,NEUTROPHIL,[2],6.5%
same,NUCLEATED RED BLOOD CELLS,[2],0.17 /100WBC
same,PLATELET COUNT,[2],1280.5 x10E3/uL
same,ALANINE AMINOTRANSFERASE,[2],50 u/L
same,ALKALINE PHOSPHATASE,[2],380.17 u/L
same,ASPARTATE AMINOTRANSFERASE,[2],82.67 u/L
same,BLOOD UREA NITROGEN,[2],15.33 mg/dL
same,CARBON DIOXIDE,[2],27.17 mmol/L
same,CHLORIDE,[2],100.33 MEQ/L
same,CHOLESTEROL,[2],60.67 mg/dL
same,CREATINE PHOSPHOKINASE,[2],441.5 u/L
same,CREATININE,[2],0.16 mg/dL
same,GLUCOSE,[2],146 mg/dL
same,LACTATE DEHYDROGENASE,[2],189.33 u/L
same,LIPASE,[2],9.17 u/L
same,PHOSPHORUS,[2],11.67 mg/dL
same,POTASSIUM,[2],6.86 MEQ/L
same,SODIUM,[2],142.33 MEQ/L
same,TOTAL BILIRUBIN,[2],0.2 mg/dL
same,TOTAL PROTEIN,[2],6.12 G/DL
same,URIC ACID,[2],1.82 mg/dL
same,ABSOLUTE BASOPHIL,[3],0 CELLS/uL
same,ABSOLUTE EOSINOPHIL,[3],54 CELLS/uL
same,ABSOLUTE LYMPHOCYTE,[3],12748.67 CELLS/uL
same,ABSOLUTE MONOCYTE,[3],258 CELLS/uL
same,ABSOLUTE SEGMENTED NEUTROPHIL,[3],2072.67 CELLS/uL
same,BASOPHIL,[3],0%
same,EOSINOPHIL,[3],0.33%
same,ERYTHROCYTE COUNT,[3],5.45 x10E6/uL
same,HEMATOCRIT,[3],34.1%
same,HEMOGLOBIN,[3],13.23 G/DL
same,LEUKOCYTE COUNT,[3],15.13 x10E3/uL
same,LYMPHOCYTE,[3],84.33%
same,MEAN CORPUSCULAR HEMOGLOBIN,[3],24.3 pg
same,MEAN CORPUSCULAR HEMOGLOBIN CONCENTRATION,[3],38.8 G/DL
same,MEAN CORPUSCULAR VOLUME,[3],62.57 fL
same,MONOCYTE,[3],1.67%
same,NEUTROPHIL,[3],13.67%
same,NUCLEATED RED BLOOD CELLS,[3],0.33 /100WBC
same,PLATELET COUNT,[3],1319 x10E3/uL
same,ALANINE AMINOTRANSFERASE,[3],50.33 u/L
same,ALKALINE PHOSPHATASE,[3],379.67 u/L
same,ASPARTATE AMINOTRANSFERASE,[3],95 u/L
same,BLOOD UREA NITROGEN,[3],15.67 mg/dL
same,CARBON DIOXIDE,[3],26 mmol/L
same,CHLORIDE,[3],101 MEQ/L
same,CHOLESTEROL,[3],60.33 mg/dL
same,CREATINE PHOSPHOKINASE,[3],360.33 u/L
same,CREATININE,[3],0.17 mg/dL
same,GLUCOSE,[3],162.33 mg/dL
same,LACTATE DEHYDROGENASE,[3],326.33 u/L
same,LIPASE,[3],8.67 u/L
same,PHOSPHORUS,[3],12.63 mg/dL
same,POTASSIUM,[3],7.24 MEQ/L
same,SODIUM,[3],142.77 MEQ/L
same,TOTAL BILIRUBIN,[3],0.27 mg/dL
same,TOTAL PROTEIN,[3],5.87 G/DL
same,URIC ACID,[3],2 mg/dL
same,ABSOLUTE BASOPHIL,[4],0 CELLS/uL
same,ABSOLUTE EOSINOPHIL,[4],0 CELLS/uL
same,ABSOLUTE LYMPHOCYTE,[4],13599 CELLS/uL
same,ABSOLUTE MONOCYTE,[4],187.67 CELLS/uL
same,ABSOLUTE SEGMENTED NEUTROPHIL,[4],813.33 CELLS/uL
same,BASOPHIL,[4],0%
same,EOSINOPHIL,[4],0%
same,ERYTHROCYTE COUNT,[4],5.46 x10E6/uL
same,HEMATOCRIT,[4],34.73%
same,HEMOGLOBIN,[4],13.83 G/DL
same,LEUKOCYTE COUNT,[4],14.6 x10E3/uL
same,LYMPHOCYTE,[4],93%
same,MEAN CORPUSCULAR HEMOGLOBIN,[4],25.37 pg
same,MEAN CORPUSCULAR HEMOGLOBIN CONCENTRATION,[4],39.83 G/DL
same,MEAN CORPUSCULAR VOLUME,[4],63.7 fL
same,MONOCYTE,[4],1.33%
same,NEUTROPHIL,[4],5.67%
same,NUCLEATED RED BLOOD CELLS,[4],0 /100WBC
same,PLATELET COUNT,[4],1349.33 x10E3/uL
same,ALKALINE PHOSPHATASE,[4],303.33 u/L
same,ASPARTATE AMINOTRANSFERASE,[4],68.67 u/L
same,BLOOD UREA NITROGEN,[4],17.67 mg/dL
same,CARBON DIOXIDE,[4],27.33 mmol/L
same,CHLORIDE,[4],101.33 MEQ/L
same,CHOLESTEROL,[4],63.67 mg/dL
same,CREATINE PHOSPHOKINASE,[4],199.33 u/L
same,CREATININE,[4],0.15 mg/dL
same,GLUCOSE,[4],159.33 mg/dL
same,LACTATE DEHYDROGENASE,[4],110 u/L
same,LIPASE,[4],8.67 u/L
same,PHOSPHORUS,[4],11.87 mg/dL
same,POTASSIUM,[4],6.75 MEQ/L
same,SODIUM,[4],144.03 MEQ/L
same,TOTAL BILIRUBIN,[4],0.23 mg/dL
same,TOTAL PROTEIN,[4],5.83 G/DL
same,URIC ACID,[4],1.47 mg/dL
